{"source": "ChEMBL document CHEMBL2074052", "about": "“Human organic anion transporters and human organic cation transporters mediate renal antiviral transport” (J Pharmacol Exp Ther, 2002)", "molecules": {"B1": {"name": "Organic anion transporter 3 (Homo sapiens) (protein)", "chain": "MTFSEILDRVGSMGHFQFLHVAILGLPILNMANHNLLQIFTAATPVHHCRPPHNASTGPWVLPMGPNGKPERCLRFVHPPNASLPNDTQRAMEPCLDGWVYNSTKDSIVTEWDLVCNSNKLKEMAQSIFMAGILIGGLVLGDLSDRFGRRPILTCSYLLLAASGSGAAFSPTFPIYMVFRFLCGFGISGITLSTVILNVEWVPTRMRAIMSTALGYCYTFGQFILPGLAYAIPQWRWLQLTVSIPFFVFFLSSWWTPESIRWLVLSGKSSKALKILRRVAVFNGKKEEGERLSLEELKLNLQKEISLAKAKYTASDLFRIPMLRRMTFCLSLAWFATGFAYYSLAMGVEEFGVNLYILQIIFGGVDVPAKFITILSLSYLGRHTTQAAALLLAGGAILALTFVPLDLQTVRTVLAVFGKGCLSSSFSCLFLYTSELYPTVIRQTGMGVSNLWTRVGSMVSPLVKITGEVQPFIPNIIYGITALLGGSAALFLPETLNQPLPETIEDLENWSLRAKKPKQEPEVEKASQRIPLQPHGPGLGSS"}, "B2": {"name": "Solute carrier family 22 member 1 (Homo sapiens) (protein)", "chain": "MPTVDDILEQVGESGWFQKQAFLILCLLSAAFAPICVGIVFLGFTPDHHCQSPGVAELSQRCGWSPAEELNYTVPGLGPAGEAFLGQCRRYEVDWNQSALSCVDPLASLATNRSHLPLGPCQDGWVYDTPGSSIVTEFNLVCADSWKLDLFQSCLNAGFLFGSLGVGYFADRFGRKLCLLGTVLVNAVSGVLMAFSPNYMSMLLFRLLQGLVSKGNWMAGYTLITEFVGSGSRRTVAIMYQMAFTVGLVALTGLAYALPHWRWLQLAVSLPTFLFLLYYWCVPESPRWLLSQKRNTEAIKIMDHIAQKNGKLPPADLKMLSLEEDVTEKLSPSFADLFRTPRLRKRTFILMYLWFTDSVLYQGLILHMGATSGNLYLDFLYSALVEIPGAFIALITIDRVGRIYPMAMSNLLAGAACLVMIFISPDLHWLNIIIMCVGRMGITIAIQMICLVNAELYPTFVRNLGVMVCSSLCDIGGIITPFIVFRLREVWQALPLILFAVLGLLAAGVTLLLPETKGVALPETMKDAENLGRKAKPKENTIYLKVQTSEPSGT"}, "B3": {"name": "Solute carrier family 22 member 6 (Homo sapiens) (protein)", "chain": "MAFNDLLQQVGGVGRFQQIQVTLVVLPLLLMASHNTLQNFTAAIPTHHCRPPADANLSKNGGLEVWLPRDRQGQPESCLRFTSPQWGLPFLNGTEANGTGATEPCTDGWIYDNSTFPSTIVTEWDLVCSHRALRQLAQSLYMVGVLLGAMVFGYLADRLGRRKVLILNYLQTAVSGTCAAFAPNFPIYCAFRLLSGMALAGISLNCMTLNVEWMPIHTRACVGTLIGYVYSLGQFLLAGVAYAVPHWRHLQLLVSAPFFAFFIYSWFFIESARWHSSSGRLDLTLRALQRVARINGKREEGAKLSMEVLRASLQKELTMGKGQASAMELLRCPTLRHLFLCLSMLWFATSFAYYGLVMDLQGFGVSIYLIQVIFGAVDLPAKLVGFLVINSLGRRPAQMAALLLAGICILLNGVIPQDQSIVRTSLAVLGKGCLAASFNCIFLYTGELYPTMIRQTGMGMGSTMARVGSIVSPLVSMTAELYPSMPLFIYGAVPVAASAVTVLLPETLGQPLPDTVQDLESRWAPTQKEAGIYPRKGKQTRQQQEHQKYMVPLQASAQEKNGL"}}, "assay_type_in_all_cases": "functional, cell-based", "key": {"[1]": {"target": "T1, OAT3 (Organic anion transporter 3) (Homo sapiens, UniProt Q8TCC7)", "T1 sequence (Q8TCC7 whole entry)": "B1 chain", "test": "TP_TRANSPORTER: inhibition of Estrone sulfate uptake (E1S: 0.05 uM, ACV: 1000 uM) in OAT3-expressing S2 cells", "set-up": "scale not given: the % may be the effect or the level left", "conditions": "mouse, probe Estrone sulfate (E1S), read-out: Activity"}, "[2]": {"target": "T2, OAT1 (Solute carrier family 22 member 6) (Homo sapiens, UniProt Q4U2R8)", "T2 sequence (Q4U2R8 whole entry)": "B3 chain", "test": "TP_TRANSPORTER: inhibition of PAH uptake (PAH: 5 uM, ACV: 1000 uM) in OAT1-expressing S2 cells", "set-up": "scale not given: the % may be the effect or the level left", "conditions": "probe PAH, read-out: Activity"}, "[3]": {"target": "T3, OCT1 (Solute carrier family 22 member 1) (Homo sapiens, UniProt O15245)", "T3 sequence (O15245 whole entry)": "B2 chain", "test": "TP_TRANSPORTER: inhibition of TEA uptake (TEA: 5 uM, ACV: 1000 uM) in OCT1-expressing S2 cells", "set-up": "scale not given: the % may be the effect or the level left", "conditions": "probe TEA, read-out: Activity"}, "[4]": {"target": "T4, OAT2 (Solute carrier family 22 member 7) (Homo sapiens, UniProt Q9Y694)", "T4 sequence (Q9Y694 whole entry)": "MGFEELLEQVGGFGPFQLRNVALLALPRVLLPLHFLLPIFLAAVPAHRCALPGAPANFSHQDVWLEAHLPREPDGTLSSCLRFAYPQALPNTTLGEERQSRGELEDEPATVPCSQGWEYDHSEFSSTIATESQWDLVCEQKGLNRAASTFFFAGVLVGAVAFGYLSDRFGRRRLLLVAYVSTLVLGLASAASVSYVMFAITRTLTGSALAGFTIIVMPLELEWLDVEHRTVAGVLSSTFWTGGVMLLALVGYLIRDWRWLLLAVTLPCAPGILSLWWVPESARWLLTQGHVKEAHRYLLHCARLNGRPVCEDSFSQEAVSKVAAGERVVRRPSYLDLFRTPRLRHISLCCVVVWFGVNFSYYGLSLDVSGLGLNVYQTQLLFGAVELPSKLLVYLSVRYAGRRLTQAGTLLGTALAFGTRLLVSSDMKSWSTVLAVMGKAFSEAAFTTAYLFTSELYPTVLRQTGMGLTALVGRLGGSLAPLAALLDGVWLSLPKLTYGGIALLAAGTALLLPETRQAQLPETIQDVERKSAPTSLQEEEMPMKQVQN", "test": "TP_TRANSPORTER: inhibition of PGF2alpha uptake (PGF2alpha: 0.005 uM, GCV: 1000 uM) in OAT2-expressing S2 cells", "set-up": "scale not given: the % may be the effect or the level left", "conditions": "probe PGF2alpha, read-out: Activity"}, "[5]": {"target": "T1, OAT3 (Organic anion transporter 3)", "test": "TP_TRANSPORTER: inhibition of E1S uptake (E1S: 0.05 uM, GCV: 1000 uM) in OAT3-expressing S2 cells", "set-up": "scale not given: the % may be the effect or the level left", "conditions": "mouse, probe E1S, read-out: Activity"}, "[6]": {"target": "T3, OCT1 (Solute carrier family 22 member 1)", "test": "TP_TRANSPORTER: inhibition of TEA uptake (TEA: 5 uM, GCV: 1000 uM) in OCT1-expressing S2 cells", "set-up": "scale not given: the % may be the effect or the level left", "conditions": "probe TEA, read-out: Activity"}, "[7]": {"target": "T2, OAT1 (Solute carrier family 22 member 6)", "test": "TP_TRANSPORTER: inhibition of PAH uptake (PAH: 5 uM, GCV: 1000 uM) in OAT1-expressing S2 cells", "set-up": "scale not given: the % may be the effect or the level left", "conditions": "mouse, probe PAH, read-out: Activity"}, "[8]": {"target": "T1, OAT3 (Organic anion transporter 3)", "test": "(§1) TP_TRANSPORTER: uptake in OAT3-expressing S2 cells", "conditions": "mouse"}, "[9]": {"target": "T4, OAT2 (Solute carrier family 22 member 7)", "test": "TP_TRANSPORTER: inhibition of PGF2alpha uptake (PGF2alpha: 0.005 uM, AZT: 1000 uM) in OAT2-expressing S2 cells", "set-up": "scale not given: the % may be the effect or the level left", "conditions": "probe PGF2alpha, read-out: Activity"}, "[10]": {"target": "T5, OAT4 (Solute carrier family 22 member 11) (Homo sapiens, UniProt Q9NSA0)", "T5 sequence (Q9NSA0 whole entry)": "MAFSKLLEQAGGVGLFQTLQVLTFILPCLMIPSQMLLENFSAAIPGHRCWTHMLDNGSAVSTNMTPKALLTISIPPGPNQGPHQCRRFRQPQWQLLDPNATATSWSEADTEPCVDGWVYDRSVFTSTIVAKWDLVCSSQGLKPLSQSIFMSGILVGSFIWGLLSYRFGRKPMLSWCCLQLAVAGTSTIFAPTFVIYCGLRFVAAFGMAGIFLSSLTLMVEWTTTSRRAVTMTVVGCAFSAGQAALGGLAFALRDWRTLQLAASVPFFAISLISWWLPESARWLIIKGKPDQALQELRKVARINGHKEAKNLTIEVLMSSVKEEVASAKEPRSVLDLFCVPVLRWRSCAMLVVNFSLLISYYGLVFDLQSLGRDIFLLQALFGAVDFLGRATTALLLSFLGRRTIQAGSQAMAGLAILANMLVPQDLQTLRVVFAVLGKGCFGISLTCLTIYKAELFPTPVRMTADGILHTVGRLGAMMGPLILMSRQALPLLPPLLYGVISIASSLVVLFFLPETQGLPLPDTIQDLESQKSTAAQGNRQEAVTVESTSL", "test": "TP_TRANSPORTER: inhibition of E1S uptake (E1S: 0.05 uM, AZT: 1000 uM) in OAT4-expressing S2 cells", "set-up": "scale not given: the % may be the effect or the level left", "conditions": "mouse, probe E1S, read-out: Activity"}, "[11]": {"target": "T1, OAT3 (Organic anion transporter 3)", "test": "TP_TRANSPORTER: inhibition of E1S uptake (E1S: 0.05 uM, AZT: 1000 uM) in OAT3-expressing S2 cells", "set-up": "scale not given: the % may be the effect or the level left", "conditions": "mouse, probe E1S, read-out: Activity"}, "[12]": {"target": "T2, OAT1 (Solute carrier family 22 member 6)", "test": "(§2) TP_TRANSPORTER: uptake in OAT1-expressing S2 cells"}, "[13]": {"target": "T2, OAT1 (Solute carrier family 22 member 6)", "test": "TP_TRANSPORTER: inhibition of PAH uptake (PAH: 5 uM, AZT: 1000 uM) in OAT1-expressing S2 cells", "set-up": "scale not given: the % may be the effect or the level left", "conditions": "mouse, probe PAH, read-out: Activity"}, "[14]": {"target": "T4, OAT2 (Solute carrier family 22 member 7)", "test": "TP_TRANSPORTER: uptake in OAT2-expressing S2 cells"}, "[15]": {"target": "T5, OAT4 (Solute carrier family 22 member 11)", "test": "TP_TRANSPORTER: uptake in OAT4-expressing S2 cells"}, "[16]": {"substrate": "CC(C)[C@H](N)C(=O)OCCOCn1cnc2c(=O)[nH]c(N)nc21", "test": "as §1"}, "[17]": {"substrate": "Nc1nc(O)c2ncn(COC(CO)CO)c2n1", "test": "(§3) TP_TRANSPORTER: uptake in OCT1-expressing S2 cells"}, "[18]": {"substrate": "Nc1nc2c(ncn2COCCO)c(=O)[nH]1", "test": "as §3"}, "[19]": {"substrate": "Nc1nc(O)c2ncn(COC(CO)CO)c2n1", "test": "as §2"}, "[20]": {"substrate": "Nc1nc2c(ncn2COCCO)c(=O)[nH]1", "test": "as §2"}}, "data": [{"molecule": "Nc1nc2c(ncn2COCCO)c(=O)[nH]1", "note": "[ACYCLOVIR]", "values": [{"measurement": "activity at 1000 µM", "setting": "[1]", "result": 64.3, "unit": "%"}, {"measurement": "activity at 1000 µM", "setting": "[2]", "result": 67, "unit": "%"}, {"measurement": "activity at 1000 µM", "setting": "[3]", "result": 88.4, "unit": "%"}]}, {"molecule": "Nc1nc(O)c2ncn(COC(CO)CO)c2n1", "note": "[GANCICLOVIR]", "values": [{"measurement": "activity at 1000 µM", "setting": "[4]", "result": 63.3, "unit": "%"}, {"measurement": "activity at 1000 µM", "setting": "[5]", "result": 74.3, "unit": "%"}, {"measurement": "activity at 1000 µM", "setting": "[6]", "result": 88.3, "unit": "%"}, {"measurement": "activity at 1000 µM", "setting": "[7]", "result": 87.1, "unit": "%"}]}, {"molecule": "Cc1cn([C@H]2C[C@H](N=[N+]=[N-])[C@@H](CO)O2)c(=O)[nH]c1=O", "note": "[ZIDOVUDINE]", "values": [{"measurement": "Km", "setting": "[8]", "result": 145, "unit": "µM"}, {"measurement": "activity at 1000 µM", "setting": "[9]", "result": 76.7, "unit": "%"}, {"measurement": "activity at 1000 µM", "setting": "[10]", "result": 84.2, "unit": "%"}, {"measurement": "activity at 1000 µM", "setting": "[11]", "result": 70, "unit": "%"}, {"measurement": "Km", "setting": "[12]", "result": 45.9, "unit": "µM"}, {"measurement": "activity at 1000 µM", "setting": "[13]", "result": 30.7, "unit": "%"}, {"measurement": "Km", "setting": "[14]", "result": 26.8, "unit": "µM"}, {"measurement": "Km", "setting": "[15]", "result": 152, "unit": "µM"}]}, {"molecule": "B1", "values": [{"measurement": "Km", "setting": "[16]", "result": 57.9, "unit": "µM"}]}, {"molecule": "B2", "values": [{"measurement": "Km", "setting": "[17]", "result": 516, "unit": "µM"}, {"measurement": "Km", "setting": "[18]", "result": 151, "unit": "µM"}]}, {"molecule": "B3", "values": [{"measurement": "Km", "setting": "[19]", "result": 896, "unit": "µM"}, {"measurement": "Km", "setting": "[20]", "result": 342, "unit": "µM"}]}]}
